Here are results for seven compounds from EP1176134A1, “LIGANDS OF NUCLEAR RECEPTORS PPAR'S” (Nuclear Receptor Research Limited, priority 1999, dated 2000).

The test system of one data set is PPARγ. As to the kind of experiment: transfer (reporter) gene activity assay in transfected COS-1 cells, PPARγ. It is filed as cell-based. The conditions noted are these: luciferase reporter, 20 hours. How it is done: Transfection was performed by a standard procedure using a LipofectAMINE reagent from Life Technologies. A 35 mm Petri dish containing 1 x 10^5 cells dispersed in 2 ml of Dulbecco's minimum medium (DMEM) containing 10% fetal bovine serum was incubated in a CO2 incubator for 17 hours. Then, the medium was removed and cells adhered to the Petri dish were washed with phosphate buffered physiological saline (PBS), after which transfection was performed using a LipofectAMINE reagent. That is, […] of a minimum serum medium OptiMEM (Life Technologies) containing […] of a plasmid bearing the luciferase gene whose expression is controlled by PPAR-responsive elements, […] of a PPAR expression plasmid and 2 mg of a plasmid bearing the β-galactosidase gene for monitoring transfection efficiency was preliminarily mixed with […] of OptiMEM containing 50 ml of LipofectAMINE dissolved therein, and the mixed solution was maintained at room temperature for 15 minutes. A Petri dish containing a mixture of 100 ml of this mixed solution and 400 ml of OptiMEM was incubated in a CO2 incubator at 37°C for 3 hours. The transfection medium was aspirated off from the Petri dish, which was supplied with DMEM containing 10% serum treated with activated carbon and a test compound and incubated at 37°C for 20 hours. […] The medium also contains a solvent for test compounds dimethyl sulfoxide (final concentration 0.1%).
After the medium in the Petri dish was aspirated off, […] of a lysing solution for cultured cells (25 mM Tris phosphate buffer (pH 7.8), 2 mM 1,2-diaminocyclo-hexane-N, N,N',N'-tetraacetate, 10% glycerol, 1% Triton X-100) was added and cells were scraped with rubber policeman. Cells were completely disrupted by freezing and thawing and then centrifuged at 4°C (15,000 rpm, 2 min), and the supernatants were used as test samples. […] The β-galactosidase for monitoring transfection efficiency was measured for fluorescence in a luminometer using Luminescent β-galactosidase detection kit II (Clontech). […]

A further data set relates to rat hypertension model. As to the kind of experiment: prevention of aneurysms in DOCA/saline one-kidney rat hypertension model. Type of data set: in vivo, male Wistar rats. How it is done: Compounds of the present invention show the effect of preventing periarteritis nodosa and aneurysms. In order to evaluate the effect of preventing aneurysms, a quantitatively assayable rat hypertension model was used so that aneurysms formed in mesenteric arteries were measured and statistically processed to determine the effect. The membrane was removed with forceps from isolated mesenterium and the remaining arterioles were fixed with formalin and then fat-stained. The number of arterioles and the number of aneurysms were counted in triplicate to calculate the average number of aneurysms per arteriole. As a hypertension model, rats with one kidney extracted to decrease renal function were given 0.9% saline as drinking water having a slightly higher osmosis than plasma and subcutaneously received 10 mg/kg of a mineral corticoid deoxycorticosteron acetate (DOCA) weekly. The left kidney was extracted from male Wistar rats (12 animals) under anesthetization. The rats deprived of kidney were randomly divided into two groups (n = 6) after a period of recovery for a week. One of the two groups was a control group and the other received compound 1. […] The experimental period was 7 weeks, during which feed intake, drinking water intake, urine volume, body weight and blood pressure were measured every 3 days from the start of experiments. […]

The test system of data set [1] is streptozotocin-induced diabetes. As to the kind of experiment: streptozotocin-induced diabetes in rats. The conditions noted are these: 100 mg/kg orally once daily; for Body weight / Drinking water intake / Feed intake / Urinary sugar excretion / Urine volume: n=8. It is filed as in vivo, male Wistar rats. Here is the method:
Streptozotocin (50 mg/kg) was injected into the tail vein of male Wistar rats weighing about 250 g to prepare an insulin deficiency diabetes model. Compound 1 suspended in a gum arabic solution was orally administered at 100 mg/kg once daily, starting immediately after administration of streptozotocin. The animals were housed in a urine-collecting cage for 24 hours on days 7 and 14 to collect urine for 24 hours. […] However, weight gain was 80 g/week in the healthy group in contrast with only 18 g/week in the diabetes control group. […] This means that administration of compound 1 improved metabolism to greatly reduce urinary sugar excretion.

Data set [2] has as its system Ehrlich ascites tumor cells. As to the kind of experiment: hyperlipidemia (cachexia marker) in Ehrlich ascites tumor bearing mice. It is filed as in vivo, male ddY-strain mice. The conditions noted are these: for Body weight / Serum neutral Serum neutral fat: day 8, mean±SD, n=8. The text has this:
In these experiments, serum neutral fat was selected as an indication of cachexia to serve as an auxiliary marker for knowing dynamics of TNFα that is difficult to quantitize, because it is difficult to exactly measure blood TNFα and it is easier to measure serum neutral fat than blood TNFα. Forty male ddY-strain mice at 5 weeks of age were randomly divided into 5 groups (n = 8), among which 4 groups were intraperitoneally implanted with 2 x 10^6 Ehrlich ascites tumor cells. The group implanted with no tumor cells was a healthy control group. From 24 hours after implantation of tumor cells, 3 groups intraperitoneally received 100-400 mg/kg of compound 1, while the other group received a solvent 0.1% Tween 80 (0.2 ml) alone free from compound 1. On day 8 after implantation of tumor cells, blood was collected from the heart of tumor bearing mice to assay neutral fat in separated serum and detect blood TNFα by immunoelectrophoresis.

The next data set deals with serum lipid. The settings on record: cited from earlier work.
For the next data set, the system named is DOCA hypertension rats. The settings on record: orally administered to DOCA hypertension rats; cited from earlier work.
For a further data set, the system named is NOD mice. As to the kind of experiment: prevention of onset of type I diabetes in NOD mice. It is filed as in vivo, female NOD mice. The conditions noted are these: 10 animals. How it is done: Each group consists of 10 animals.
The mice were bred for 24 weeks, during which they were tested for urinary sugar excretion using an urinary sugar detection tape on Monday and Friday (Fig. 3).

For data set [3], the system named is hereditary obese and diabetic mice C57BL/ksj db/db. As to the kind of experiment: polydipsia/polyuria and urinary sugar excretion in db/db mice fed compound in diet. It is filed as in vivo. Here is the method:
Ten male db/db mice at 30-32 weeks of age were randomly divided into two groups (n = 5), ie, a control group and compound 17 group. The animals were allowed free access to diet and drinking water. The diet was mouse II rat standard food CE-2 powder from Clea Japan, which was pelletized after a solution of compound 17 in acetone was applied and acetone was evaporated by air-drying. Compound 17 was added in an amount of 0.1% of the diet. A control diet was also pelletized after the same amount of acetone was applied.
Both groups received the control diet for first 7 days to test feed intake, urine volume, urinary sugar level and urinary sugar excretion level. During the following 5 days, the treatment group received the diet containing 0.1% compound 17. The treatment group was bred with the control diet again for further 4 days and then bred with the diet containing 0.1% compound 17 again for 5 days on […]. As db/db mice individually bred in metabolic cages show wide variation in feed and drinking water intakes, 5 animals were housed in a rat metabolic cage and the values obtained in each cage were divided by 5 and shown in Fig. 1. […] Urinary sugar excretion level is 50% or less as compared with the control period even 24 hours after administration is stopped, showing that compound 17 has a carry-over effect.

The next data set has as its system db/db mice. As to the kind of experiment: blood glucose and urinary sugar excretion in db/db mice. The conditions noted are these: 60 mg/kg orally once daily, Fig. 2. It is filed as in vivo. How it is done: Blood was collected from the tail vein of ten db/db mice at 12 weeks of age 2 days before the start of experiments, and the animals were divided into two groups each having an average blood glucose level of 720-740 mg/dl. One group was a control group, while the other group orally received compound 25 at 60 mg/kg once daily. […] SA solid diamond denotes the control group, solid triangle denotes the: group treated with compound 1 at 25 mg/kg, open square denotes the: group treated with compound 1 at 50 mg/kg, and cross denotes the: group treated with compound 25 at 50 mg mg/kg. Each group consists of 10 animals.
Blood was collected from the tail vein of ten db/db mice at 12 weeks of age, and the animals were divided into two groups, ie, a control group and a compound 25 group, each having an average blood glucose level of about 700 mg/dl and housed in urine-collecting cages. A small amount of blood was collected from the tail vein on days 1, 2, 3, 5, 7 and 10 from the start of experiments to determine blood glucose. Urine was collected for 24 hours at the same intervals to determine urinary sugar excretion level by the oxygen method.

Where [4] appears, read: Dose 100 mg/kg intraperitoneally.
[5] abbreviates: Dose 200 mg/kg intraperitoneally.
Where [6] appears, read: Dose 400 mg/kg intraperitoneally.
The mark [7] stands for this setting: groups treated with 100-400 mg/kg.
Where [8] appears, read: 50 mg/kg intraperitoneally twice weekly.
The mark [9] stands for this setting: diet containing 0.1% compound, Fig. 1.

`C/C(=C\Cc1c(O)c(Cl)c(C)c(C=O)c1O)CC/C=C(\C)C1CC(=O)C(C)(C)O1` (centres unmarked) [Compound 1, Ascofuranone]: the “Activation of receptors PPARγ” value in the data set with PPARγ is listed as “+++ (Activation peak appears at 10^-6-10^-5M.)”. Also, the “effect of suppressing pressure rise (blood pressure)” value with rat hypertension model (orally 100 mg/kg from week 3, compared with control group) is “any significant effect of suppressing pressure rise was not observed”. The “aneurysms (mean ± SE) per mesenteric artery” value with rat hypertension model (orally 100 mg/kg from week 3, dissected at week 7, n = 6) is recorded as 0.51 ± 0.37 aneurysms per mesenteric arter. The weight gain in [1] was found to be 30 g/week. In data set [1] (Day 7), this compound had a Body weight of 307.7±4.8 g/rat, a Drinking water intake of 99.9±13.0 ml/rat/day, a Feed intake of 32.9±1.9 g/rat and a Urinary sugar excretion of 5.39±0.55 g/rat/day. In data set [1] (Day 7), this compound displayed a Urine volume of 74.6±6.4 ml/rat/day. Moreover, in data set [1] (Day 14), the Body weight came out at 318.3±6.8 g/rat, the Drinking water intake is 106.9±18.0 ml/rat/day, the Feed intake worked out at 32.6±2.9 g/rat and the Urinary sugar excretion is 5.78±1.09 g/rat/day. The compound further returned a Urine volume in data set [1] (Day 14) of 79.7±12.5 ml/rat/day. Also, in data set [1] (day 7), the “drinking water intake as compared with the diabetes control group” value came to 41.4% and the “feed intake decrease as compared with the diabetes control group” value was 14.3%. For the same compound, in [1] (day 14), the “drinking water intake as compared with the diabetes control group” value is listed as 43.6% and the “feed intake decrease as compared with the diabetes control group” value stood at 23.3%. Besides, in data set [2] (setting [4]), the Body weight was determined as 38.0±1.0 g/mouse and the “Serum neutral Serum neutral fat” value was determined as 258.2 ± 53.2 mg/dL. Further, in data set [2] (setting [5]), the Body weight amounted to 36.7±0.7 g/mouse and the “Serum neutral Serum neutral fat” value was 185.1 ± 26.2 mg/dL. Moreover, in data set [2] (setting [6]), the Body weight is given as 31.3±1.1 g/mouse and the “Serum neutral Serum neutral fat” value turned out to be 99.1 ± 18.3 mg/dL. Moreover, in data set [2] (setting [7]), the “blood TNFα” value is reported as “downward tendency”, the blood glucose level entry was “significant increase” and the “increase of serum neutral fat” value is listed as “dose-dependently suppressed”. Besides, the toxicity entry with serum lipid (orally administered to rodents) is “very low toxicity”. Further, the “effect on serum lipid” value in the data set on serum lipid (orally administered, rats bred with a standard diet or a high-fat diet) is “lowering serum lipid”. Further, in the data set on DOCA hypertension rats, the “indications of cardiovascular diseases” value is recorded as “improves indications of cardiovascular diseases” and the pressure rise result was “does not suppress pressure rise”. The “incidence of type I diabetes at week 24” value with NOD mice (25 mg/kg intraperitoneally twice weekly) stood at 30%. Besides, in the data set with NOD mice (setting [8]), the “incidence of type I diabetes at week 24” value worked out at 10%.
`COc1c(C=O)c(C)c(Cl)c(O)c1C/C=C(\C)CC/C=C(\C)C1CC(=O)C(C)(C)O1` (centres unmarked) [Compound 7, 2-O-methyl AF]: the “Activation of receptors PPARγ” value in the data set with PPARγ is “+++ (Activation peak appears at 10^-6-10^-5M.)”.
Consider `COc1c(Cl)c(C)c(C=O)c(O)c1C/C=C(C)/C=C/[C@@]1(C)[C@H](C)CCC(=O)[C@@H]1C` [Compound 17, 4-O-MeAS], for which the “Urinary sugar excretion level as compared with the control period” value in data set [3] (24 hours after administration is stopped, 0.1% in diet) is given as no more than 50%. Further, in data set [3] (setting [9]), the Urine volume result is “sharply decrease”, the “urinary sugar excretion level” value is “sharply decrease” and the urinary sugar level result is on record as “sharply decrease”.
Take `COc1c(C=O)c(C)c(Cl)c(O)c1C/C=C(C)/C=C/C1(C)C(C)CCC(=O)C1C` (centres unmarked) [Compound 21, 2-O-methylascochlorin]: in the data set with PPARγ, the “Activation of receptors PPARγ” value is given as “++ (Activation peak appears at 10^-5-10^-4M.)”.
For `CC(/C=C/C1(C)C(C)CCC(=O)C1C)=C\Cc1c(O)c(C=O)c(C)c(Cl)c1OCC(=O)O` (centres unmarked) [Compound 25], the “Activation of receptors PPARγ” value with PPARγ is “+++ (Activation peak appears at 10^-6-10^-5M.)”. For the same compound, in the data set with db/db mice (day 7), the blood glucose loss result is “over 30%”. Moreover, the urinary sugar entry with db/db mice (day following the start of administration) is reported as “decreased to a half”. Also, the blood glucose entry with db/db mice (from day 3 of administration) was “significantly decreased”. Further, the “urinary sugar excretion level loss” value in the data set with db/db mice (on and after day 3) is on record as “over 90%”. Moreover, in the data set on NOD mice (setting [8]), the “incidence of type I diabetes at week 24” value worked out at 10%.
Take `CC(/C=C/C1(C)C(C)CCC(=O)C1C)=C\Cc1c(O)c(C=O)c(C)c(Cl)c1OC(=O)c1cccnc1` (centres unmarked) [Compound 26]: in the data set with PPARγ, the “Activation of receptors PPARγ” value is “++ (Activation peak appears at 10^-5-10^-4M.)”.
For the compound `CC(/C=C/C1(C)C(C)CCC(=O)C1C)=C\Cc1c(O)c(C=O)c(C)c(Cl)c1OC(=O)CCCC(=O)O` (centres unmarked) [Compound 29, 4-O-(4-Carboxybutanoyl)ascochlorin], the “Activation of receptors PPARγ” value in the data set with PPARγ is “+++ (Activation peak appears at 10^-6-10^-5M.)”.
